{"source": "patent US11471448B2", "about": "(priority 2020, dated 2022)", "key": {"[1]": {"system": "SARS-CoV-2 clinical isolate (2019-nCoV/USA-WA1/2020)", "assay": "Anti-viral activity against SARS-CoV-2 in HBEC air-liquid-interface cultures (apical viral titer by TCID50)", "type": "cell-based"}, "[2]": {"system": "human bronchial epithelial cells (HBEC)"}, "[3]": {"system": "patients with severe COVID-19 pneumonia", "assay": "Randomized, double-blind, placebo-controlled Phase 2/3 study of opaganib in COVID-19 pneumonia (baseline FiO2 up to 60% subgroup)"}}, "note": "Counter-ions that a name gives are not always drawn.", "data": [{"compound": "O=C(NCc1ccncc1)C12CC3CC(C1)CC(c1ccc(Cl)cc1)(C3)C2", "note": "[opaganib, 3-(4-chlorophenyl)-adamantane-1-carboxylic acid (pyridin-4-ylmethyl) amide, hydrochloride salt]", "values": [{"measurement": "50% inhibition reached in the concentration range tested", "setting": "[1]; 0.05 to 11.25 μg/ml", "value": "neither 50% inhibition nor 50% cytotoxicity were reached"}, {"measurement": "concentration from which complete inhibition of infectious virus production is seen", "setting": "[1]; SARS-CoV-2-infected HBEC, 3 days incubation", "value": "≥ 1", "unit": "µg/mL"}, {"measurement": "cell viability", "setting": "[2]", "value": "remained viable"}, {"measurement": "50% cytotoxicity reached in the concentration range tested", "setting": "[2]; human", "value": "neither 50% inhibition nor 50% cytotoxicity were reached"}, {"measurement": "overall adverse events vs. placebo group", "setting": "[3]; 500 mg Q12 hours, 14 days", "value": "balanced"}, {"measurement": "patients reaching room air by Day 14 (no supplemental oxygen for at least 24 hours)", "setting": "[3]; baseline FiO2 up to 60%, 90/117 patients, placebo 85/134 (63.5%)", "value": 77, "unit": "%"}, {"measurement": "efficacy benefit in mortality, Sensitivity Analysis", "setting": "[3]; baseline FiO2 up to 60%, nominal p-value=0.033", "value": 64, "unit": "%"}, {"measurement": "mortality (deaths/patients), Sensitivity Analysis", "setting": "[3]; baseline FiO2 up to 60%, placebo 16/134", "value": "5/117"}, {"measurement": "efficacy benefit in reaching room air by Day 14", "setting": "[3]; baseline FiO2 up to 60%, vs. placebo, nominal p-value=0.033", "value": 21, "unit": "%"}, {"measurement": "median time to discharge", "setting": "[3]; baseline FiO2≤60% (251 patients), placebo 14 days", "value": 10, "unit": "days"}, {"measurement": "Time to a score of <=3 on the WHO Ordinal Scale: Kaplan-Meier Median", "setting": "[3]; baseline FiO2≤60%, 95% CI (7.00-9.00), placebo 10.00", "value": 8.00, "unit": "days"}, {"measurement": "Patients With an Improvement of 2 or More on the WHO Ordinal Scale Compared to Baseline by Day 14", "setting": "[3]; baseline FiO2≤60%, N = 117", "value": "93 (79.49) n (%)"}, {"measurement": "Time to Discharge by day 42: Number of Events", "setting": "[3]; baseline FiO2≤60%, N = 117", "value": "81 (69.2) n (%)"}, {"measurement": "Time to a score of <=3 on the WHO Ordinal Scale: Number of Events", "setting": "[3]; baseline FiO2≤60%, N = 117", "value": "93 (79.5) n (%)"}, {"measurement": "Time to Discharge by day 42: Difference and 95% CI (opaganib vs. placebo)", "setting": "[3]; baseline FiO2≤60%, p-value 0.0022", "value": "−4.48 (−7.34, −1.62) days"}, {"measurement": "Difference in Rates (Opaganib-Placebo), improvement of 2 or more on the WHO Ordinal Scale by Day 14", "setting": "[3]; baseline FiO2≤60%, p-value 0.023", "value": 13.82, "unit": "%"}, {"measurement": "Time to Discharge by day 42: Kaplan-Meier Mean (Restricted Mean Analysis)", "setting": "[3]; baseline FiO2≤60%, placebo 17.89", "value": 13.41, "unit": "days"}, {"measurement": "mortality (deaths/patients)", "setting": "[3]; mITT with baseline FiO2 up to 60%, through Day 42, placebo 21/134", "value": "7/117"}, {"measurement": "reduction in mortality", "setting": "[3]; mITT with baseline FiO2 up to 60%, vs. placebo, nominal p-value=0.019", "value": 62, "unit": "%"}]}]}
